US10022397B2, “Treatment of rheumatoid arthritis using noble gas mixtures” (Nobilis Therapeutics, Inc., priority 2016, dated 2018)

System: patients with disease modifying antirheumatic drug (DMARD)-resistant Rheumatoid Arthritis (RA)
Protocol: 20 patients with disease modifying antirheumatic drug (DMARD)-resistant Rheumatoid Arthritis (RA) are chosen for a clinical trial assessing safety and efficacy of 25% Xenon administration with 75% air. A total of 10 liters of gas inhaled. Administration is performed 3 times per week.
Safety is determined by assessment of hematological biochemical, and coagulation parameters on baseline, and days 30, 60, and 90. Efficacy is assessed by CRP, ESR, anti-citrulline antibody, RF, Quality of Life Questionnaire, 28-joint disease activity score (DAS28), European League against Rheumatism (EULAR) response criteria and immunological parameters. […]
Safety will be assessed throughout the study with the use of direct evaluation and patient reporting during study visits or patient-initiated telephone contacts. The types, frequencies, severity, and duration of any reported adverse event or abnormalities in clinical laboratory values, physical examinations, vital signs, or special cardiovascular evaluations will be assessed. […]
To assess preliminary evidence of efficacy, the following assessments will be analyzed at following time points and compared to baseline values: […]
Quality of Life Assessment at 1, 2, and 3 Months Measured by: • Change in Rheumatoid Arthritis Quality of Life (RAQoL) questionnaire

Compound: [Xe] [Xenon, xenon]
- clinical and immunological parameters of RA (25% Xenon with 75% air, 10 liters inhaled, 3 times per week, DAS28, EULAR, RF, ESR, CRP, anti-citrulline antibody, RAQoL at 1, 2 and 3 months vs baseline): reduction of clinical and immunological parameters of RA is noted in a statistically significant manner
- treatment associated adverse events (human, in vivo): no significant treatment associated adverse events
